The supplement of paper PMC10307832

Tests used:
Test in all cases: relative viability (nuclei count vs DMSO), 5 days (fraction); higher = more cells survive
[1] = compound: CC1=CC(=NN1)NC2=CC(=NC(=N2)/C=C/C3=CC=CC=C3)N4CCN(CC4)C + CC(=O)c1c(C)c2cnc(Nc3ccc(N4CCNCC4)cn3)nc2n(C2CCCC2)c1=O [Palbociclib] (partner 0.5 µM)
How it was run: (§1)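 A single step with final 0.05% Triton X-100, 1% formaldehyde and 1 ug/ml Hoechst fixed the cells and stained nuclei 5 days after treatment. Lung cancer cell lines in 1536-well plates had been treated by pin tool the day after seeding with one drug alone or a fixed anchor-drug dose plus five library-drug doses (not always all listed) in √10 steps, and nuclei were counted on 4× images. Relative viability is the ratio of nuclei in treated wells to nuclei in vehicle wells, taken as the median of duplicate plates.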

Bortezomib + Phenformin = compound: CC(C)C[C@H](NC(=O)[C@H](Cc1ccccc1)NC(=O)c1cnccn1)B(O)O [Bortezomib] + N=C(N)NC(=N)NCCc1ccccc1 [Phenformin] (partner 250 µM)
How it was run: as §1

Bortezomib + Alpelisib = compound: CC(C)C[C@H](NC(=O)[C@H](Cc1ccccc1)NC(=O)c1cnccn1)B(O)O [Bortezomib] + Cc1nc(NC(=O)N2CCC[C@H]2C(N)=O)sc1-c1ccnc(C(C)(C)C(F)(F)F)c1 [Alpelisib] (partner 2 µM)
How it was run: as §1

Bortezomib + Trametinib = compound: CC(C)C[C@H](NC(=O)[C@H](Cc1ccccc1)NC(=O)c1cnccn1)B(O)O [Bortezomib] + CC(=O)Nc1cccc(-n2c(=O)n(C3CC3)c(=O)c3c(Nc4ccc(I)cc4F)n(C)c(=O)c(C)c32)c1 [Trametinib] (partner 0.02 µM)
How it was run: as §1

Cell Line	relative viability ([1]; first compound 0.08 µM)	relative viability ([1]; first compound 0.253 µM)	relative viability ([1]; first compound 0.8 µM)	relative viability ([1]; first compound 2.53 µM)	relative viability ([1]; first compound 8 µM)	relative viability (Bortezomib + Phenformin; first compound 0.0002 µM)	relative viability (Bortezomib + Phenformin; first compound 0.000632 µM)	relative viability (Bortezomib + Phenformin; first compound 0.002 µM)	relative viability (Bortezomib + Phenformin; first compound 0.006325 µM)	relative viability (Bortezomib + Phenformin; first compound 0.02 µM)	relative viability (Bortezomib + Alpelisib; first compound 0.0002 µM)	relative viability (Bortezomib + Alpelisib; first compound 0.000632 µM)	relative viability (Bortezomib + Alpelisib; first compound 0.002 µM)	relative viability (Bortezomib + Alpelisib; first compound 0.006325 µM)	relative viability (Bortezomib + Alpelisib; first compound 0.02 µM)	relative viability (Bortezomib + Trametinib; first compound 0.0002 µM)	relative viability (Bortezomib + Trametinib; first compound 0.000632 µM)	relative viability (Bortezomib + Trametinib; first compound 0.002 µM)	relative viability (Bortezomib + Trametinib; first compound 0.006325 µM)	relative viability (Bortezomib + Trametinib; first compound 0.02 µM)
HCC-366	0.414	0.368	0.344	0.0349	0.019	0.621	0.542	0.629	0.578	0.0354	0.467	0.316	0.409	0.339	0.0134	0.333	0.371	0.433	0.181	0.0229
HCC-827	0.445	0.514	0.505	0.501	0.231	0.428	0.379	0.442	0.192	0.101	1.12	0.948	0.8	0.149	0.126	0.515	0.555	0.417	0.218	0.141
HOP-62	0.41	0.458	0.492	0.371	0.154	0.661	0.625	0.54	0.151	0.0609	0.938	1.08	0.33	0.0928	0.067	0.37	0.401	0.378	0.173	0.0647
IA-LM											0.773	0.669	0.561	0.0626	0.0159					
LC-2-ad	0.552	0.488	0.413	0.298	0.18	0.686	0.507	0.557	0.19	0.146	0.838		0.898	0.0898	0.0932	0.903	0.89	0.995	0.597	0.201
LCLC-97TM1	0.246	0.201	0.201	0.168	0.0556	0.426	0.403	0.433	0.257	0.159	0.245	0.242	0.113	0.11	0.114	0.173	0.205	0.162	0.0973	0.063
LCLC-103H	0.44	0.438	0.491	0.422	0.349	0.361	0.32	0.299	0.178	0.135	0.955	0.893	1.02	1.07	0.166	0.661	0.687	0.589	0.336	0.256
LK-2	0.61	0.691	0.547	0.33	0.0792	0.416	0.282	0.514	0.131	0.149		1.01	0.263	0.256	0.27	0.68	0.597	0.332	0.156	0.196
LOU-NH91	0.55	0.516	0.5	0.56	0.407	0.774	0.645	0.661	0.282	0.261	0.72	0.628	0.395	0.309	0.305	0.772	0.793	0.402	0.344	0.359
LU99A	0.413	0.461	0.393	0.299	0.146	0.789	0.782	0.898	0.85	0.328	0.424		0.466	0.224	0.141	0.546	0.522	0.567	0.517	0.148
LXF-289	0.632	0.63	0.602	0.568	0.304	0.556	0.507	0.483	0.076	0.0724	1.03	1.01	0.946	0.0804	0.0589	0.699	0.672	0.768	0.113	0.101
NCI-H522	1.04	1.19	1.31	0.726	0.357	0.58	0.618	0.573	0.62	0.448						0.753	0.821	0.796	0.387	0.331
NCI-H596						0.737	0.474	0.828	0.267	0.211	0.541	0.431	0.42	0.174	0.128	0.835	0.773	0.568	0.208	0.168
NCI-H1299											1.02	1.07	1.08	0.89	0.304					
NCI-H1563						0.742	0.659	0.636	0.518	0.465	0.882	0.848	0.844	0.505	0.489					
NCI-H1623						0.538	0.594	0.623	0.577	0.307										
NCI-H1648	0.262	0.25	0.238	0.256	0.271											0.465	0.594	0.371	0.263	0.389
NCI-H1650	0.285	0.414	0.351	0.201	0.0872	0.385	0.303	0.139	0.16	0.149						0.627	0.572	0.128	0.132	0.129
NCI-H1703											0.32	0.256	0.131	0.134	0.0835					
NCI-H2342	0.531	0.517	0.532	0.527	0.492	0.653	0.508	0.574	0.714	0.566						0.869	0.965	0.815	0.924	0.386
SW 900	0.514	0.542	0.497	0.284	0.12	0.534	0.548	0.13	0.123	0.0977						0.587	0.578	0.167	0.155	0.145
